Laboratory results: PubChem BioAssay (NCI)
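Method: 48-hour compound exposure of cells in 96-well plates, five concentrations, linear interpolation of endpoints. Definition used: TGI = concentration required for complete inhibition of growth.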 Where a SMILES comes first, the peptide text is derived from it. The star is where a group is joined. Boc = CC(C)(C)OC(=O)*

What was measured:
Experiment in all cases: DTP human tumour cell line panel, 48 h
CCRF-CEM leukemia = tested on: CCRF-CEM leukemia
COLO 205 colon = tested on: COLO 205 colon
EKVX NSCLC = tested on: EKVX NSCLC
HCC-2998 colon = tested on: HCC-2998 colon
KM12 colon = tested on: KM12 colon
M14 melanoma = tested on: M14 melanoma
MCF7 breast = tested on: MCF7 breast
MOLT-4 leukemia = tested on: MOLT-4 leukemia
NCI-H226 lung = tested on: NCI-H226 lung
NCI-H460 lung = tested on: NCI-H460 lung
NCI-H522 lung = tested on: NCI-H522 lung
OVCAR-4 ovarian = tested on: OVCAR-4 ovarian
RPMI-8226 leukemia = tested on: RPMI-8226 leukemia
SK-MEL-28 melanoma = tested on: SK-MEL-28 melanoma
SK-OV-3 ovarian = tested on: SK-OV-3 ovarian
SN12C renal = tested on: SN12C renal
SNB-19 CNS = tested on: SNB-19 CNS
UO-31 renal = tested on: UO-31 renal
OVCAR-5 ovarian = tested on: OVCAR-5 ovarian
SK-MEL-2 melanoma = tested on: SK-MEL-2 melanoma

Measured: TGI

COC(=O)CCc1ccc2c(c1)CC1(C2)Cc2ccc3c(c2C1)CCC3 (stereo not given)
67.5 µM: UO-31 renal
not listed: OVCAR-5 ovarian | SK-MEL-2 melanoma
> 100 µM: all other assays above

CCOC(=O)CC(N1CC1)N1CC1
> 10 µM: all assays above

Cc1cc(C)c2c(c1)C(=O)C1(C2)Cc2c(ccc(C)c2C)C1=O (stereo not given)
not listed: SK-OV-3 ovarian | OVCAR-5 ovarian
> 100 µM: all other assays above

CC1CC(NN(C)C)C2(C(N)=O)C(N)=NC(=O)C12C#N (stereo not given)
not listed: NCI-H460 lung | OVCAR-4 ovarian
> 100 µM: all other assays above

CC1(C)C(=O)C2(C#N)CCC1C2 (stereo not given)
not listed: NCI-H522 lung
> 100 µM: all other assays above

COC(=O)c1ccc(NCc2cc(O)ccc2O)cc1O
26.2 µM: OVCAR-4 ovarian
29.1 µM: SN12C renal
31 µM: OVCAR-5 ovarian
4.93 µM: RPMI-8226 leukemia
21.6 µM: MCF7 breast
27 µM: EKVX NSCLC
15.3 µM: KM12 colon
26.7 µM: HCC-2998 colon
31.7 µM: M14 melanoma
> 55.5 µM: SK-OV-3 ovarian
1.59 µM: NCI-H522 lung
31.8 µM: SNB-19 CNS
8.49 µM: MOLT-4 leukemia
33.7 µM: COLO 205 colon
37.4 µM: SK-MEL-2 melanoma
46.3 µM: NCI-H226 lung
30 µM: SK-MEL-28 melanoma
5.61 µM: UO-31 renal
31.2 µM: NCI-H460 lung

Nc1cnc2c(c1)c(=O)nc1n2CCS1
not listed: M14 melanoma | NCI-H522 lung
> 100 µM: all other assays above

COc1ccc(C(=O)c2ccc(-n3c4ccccc4c4ccc5c(c43)C(=O)C=CC5=O)cc2)cc1
4.32 µM: EKVX NSCLC
6.37 µM: OVCAR-4 ovarian
7.45 µM: M14 melanoma
40.3 µM: OVCAR-5 ovarian
11 µM: SNB-19 CNS
69.4 µM: NCI-H226 lung
2.6 µM: MCF7 breast
> 100 µM: MOLT-4 leukemia | RPMI-8226 leukemia
27.5 µM: SK-OV-3 ovarian
4.01 µM: SN12C renal
11.5 µM: HCC-2998 colon
0.936 µM: NCI-H522 lung
1.07 µM: UO-31 renal
10 µM: KM12 colon
11.3 µM: SK-MEL-2 melanoma
9.34 µM: COLO 205 colon
19.3 µM: NCI-H460 lung

COC(=O)/C(=C\C(=O)c1ccc(Br)cc1)NN=C(c1ccccc1)c1ccccc1
not listed: NCI-H226 lung | NCI-H460 lung | NCI-H522 lung | SNB-19 CNS | UO-31 renal | OVCAR-5 ovarian | SK-MEL-2 melanoma
> 10 µM: all other assays above

CCOC(=O)c1c(N2CCOCC2)[nH]c(=O)c(C(c2ccc(Cl)c([N+](=O)[O-])c2)c2c(O)c(C(=O)OCC)c(N3CCOCC3)[nH]c2=O)c1O
69.6 µM: MCF7 breast
51 µM: SN12C renal
95.5 µM: UO-31 renal
57.8 µM: MOLT-4 leukemia
58.5 µM: M14 melanoma
40.4 µM: CCRF-CEM leukemia
79.3 µM: SNB-19 CNS
55.2 µM: NCI-H522 lung
not listed: SK-MEL-2 melanoma
> 100 µM: all other assays above

O=C(NC/C(Cl)=C/Cl)Nc1cccc2c1CCCC2
not listed: CCRF-CEM leukemia
> 100 µM: all other assays above

N#CC(c1ccccc1)N(CCc1ccccc1)C(=O)Oc1ccccc1 (stereo not given)
not listed: NCI-H460 lung
> 100 µM: all other assays above

O=C(O)c1cc(N(Cc2ccccc2O)Cc2cc(O)ccc2O)ccc1O
not listed: NCI-H522 lung
> 100 µM: all other assays above

CCOC(=O)C(CC(C)C)NC(=O)C(Cc1ccccc1)NC(=O)CNC(=O)OC(C)(C)C (stereo not drawn) (Boc-Gly-Phe-Leu-OEt; configuration not given here)
17.3 µM: MCF7 breast
30.6 µM: MOLT-4 leukemia
71.1 µM: OVCAR-4 ovarian
35.4 µM: SN12C renal
45.8 µM: RPMI-8226 leukemia
41.3 µM: CCRF-CEM leukemia
37.5 µM: KM12 colon
31.5 µM: SK-MEL-28 melanoma
99.4 µM: SK-MEL-2 melanoma
40.2 µM: M14 melanoma
50.9 µM: SK-OV-3 ovarian
37.2 µM: HCC-2998 colon
41 µM: NCI-H226 lung
34.8 µM: NCI-H522 lung
> 100 µM: SNB-19 CNS | UO-31 renal
26.6 µM: NCI-H460 lung
54.1 µM: EKVX NSCLC

COc1ccccc1OC(=O)/C=C/c1ccccc1
not listed: CCRF-CEM leukemia
> 100 µM: all other assays above

CC1OC(OC2C(O[C@@H]3C[C@@H]4CC[C@@H]5[C@H](CC[C@]6(C)[C@@H]7[C@H](C[C@@H]56)O[C@]5(CC[C@@H](C)CO5)[C@H]7C)[C@@]4(C)C[C@H]3O)OC(CO)C(OC3OC(CO)C(O)C(O)C3O)C2O)C(O)C(O)C1O (stereo not given in full)
11.3 µM: RPMI-8226 leukemia
3.66 µM: SNB-19 CNS
3.05 µM: SN12C renal
3.81 µM: UO-31 renal
3.12 µM: COLO 205 colon | OVCAR-5 ovarian
4.76 µM: OVCAR-4 ovarian
3.65 µM: MCF7 breast
4.14 µM: NCI-H460 lung
3.13 µM: SK-MEL-28 melanoma
3.07 µM: M14 melanoma
3.72 µM: CCRF-CEM leukemia
3.17 µM: SK-OV-3 ovarian
2.4 µM: NCI-H522 lung
3.67 µM: MOLT-4 leukemia
3.25 µM: NCI-H226 lung
3.28 µM: SK-MEL-2 melanoma
4.49 µM: KM12 colon
2.91 µM: EKVX NSCLC

O=C1/C(=C\c2c(-c3ccccc3)nn(-c3ccccc3)c2O)C(c2ccccc2)=NN1c1ccccc1
not listed: NCI-H522 lung
> 100 µM: all other assays above

CN(CC#N)C(=O)Cc1ccc([N+](=O)[O-])cc1
not listed: NCI-H522 lung
> 10 µM: all other assays above

N#CC(c1ccccc1)(c1ccccc1)[C@@H](c1ccccc1)[C@H](Cc1ccccc1)NS(=O)(=O)c1ccccc1
not listed: NCI-H226 lung
> 100 µM: all other assays above

Cc1cc(=O)oc2c(CNC(C(=O)O)C(C)O)c(O)ccc12 (stereo not given)
not listed: HCC-2998 colon
> 100 µM: all other assays above

NCCc1ccc2c(c1)C(=O)c1c(O)ccc(O)c1C2=O
> 87 µM: OVCAR-5 ovarian
29.6 µM: SNB-19 CNS
> 87.6 µM: NCI-H460 lung
25.7 µM: UO-31 renal
22.2 µM: SK-OV-3 ovarian
6.73 µM: EKVX NSCLC
not listed: NCI-H522 lung | SK-MEL-28 melanoma | SN12C renal
> 100 µM: all other assays above

CCOC(=O)CCC(NC(=O)c1ccc(Oc2nc3ccccc3nc2C(=O)OCC)cc1)C(=O)OCC (stereo not given)
not listed: NCI-H226 lung | SK-OV-3 ovarian
> 100 µM: all other assays above

CN(NC(=O)c1cccs1)C1=NCCN1
not listed: SN12C renal
> 100 µM: all other assays above

COc1ccc2[nH]c3c(C)c4cnccc4c(C)c3c2c1
2.83 µM: KM12 colon
3.9 µM: MCF7 breast
4.43 µM: NCI-H522 lung
9.27 µM: NCI-H226 lung
5.17 µM: OVCAR-4 ovarian
3.44 µM: SK-MEL-28 melanoma
3.35 µM: HCC-2998 colon
2.54 µM: M14 melanoma
7.11 µM: RPMI-8226 leukemia
4.44 µM: COLO 205 colon
3.58 µM: NCI-H460 lung
not listed: UO-31 renal
> 10 µM: all other assays above

CC(=O)O/C=C\OC1CCCC1
not listed: SN12C renal | OVCAR-5 ovarian
> 100 µM: all other assays above
